This note sets out measurements from ChEMBL document CHEMBL2074256, “HIV protease inhibitors are inhibitors but not substrates of the human breast cancer resistance protein (BCRP/ABCG2)” (J Pharmacol Exp Ther, 2004).

This assay deals with T1, Broad substrate specificity ATP-binding cassette transporter ABCG2 (Homo sapiens, UniProt Q9UNQ0).
T1 sequence (Q9UNQ0 whole entry): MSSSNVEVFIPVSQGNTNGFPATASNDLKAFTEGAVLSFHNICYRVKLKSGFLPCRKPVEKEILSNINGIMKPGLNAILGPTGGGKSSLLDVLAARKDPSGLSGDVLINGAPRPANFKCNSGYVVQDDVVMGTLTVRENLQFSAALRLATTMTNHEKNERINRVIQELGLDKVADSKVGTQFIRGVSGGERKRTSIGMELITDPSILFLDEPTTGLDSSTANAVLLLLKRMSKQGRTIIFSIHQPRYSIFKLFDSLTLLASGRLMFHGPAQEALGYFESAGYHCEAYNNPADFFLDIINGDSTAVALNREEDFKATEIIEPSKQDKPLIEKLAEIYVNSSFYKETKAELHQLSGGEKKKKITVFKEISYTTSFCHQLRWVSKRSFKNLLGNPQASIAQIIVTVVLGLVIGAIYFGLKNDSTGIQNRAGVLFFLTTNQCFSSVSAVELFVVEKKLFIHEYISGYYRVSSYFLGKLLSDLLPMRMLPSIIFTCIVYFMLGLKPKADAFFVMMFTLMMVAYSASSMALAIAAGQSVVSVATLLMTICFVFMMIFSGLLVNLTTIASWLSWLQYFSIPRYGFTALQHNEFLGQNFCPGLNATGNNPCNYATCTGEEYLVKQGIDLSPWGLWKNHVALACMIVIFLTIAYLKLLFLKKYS
Kind of assay: TP_TRANSPORTER: increase in mitoxantrone intracellular accumulation in BCRP-expressing HEK cells. It is filed as functional, cell-based, HEK293.

With `CC(C)(C)NC(=O)[C@@H]1C[C@@H]2CCCC[C@@H]2CN1C[C@@H](O)[C@H](Cc1ccccc1)NC(=O)[C@H](CC(N)=O)NC(=O)c1ccc2ccccc2n1`, the half-maximal inhibitory concentration (IC50) was determined as 19.5 µM. In turn, `Cc1c(O)cccc1C(=O)N[C@@H](CSc1ccccc1)[C@H](O)CN1C[C@H]2CCCC[C@H]2C[C@H]1C(=O)NC(C)(C)C` had a 50% inhibitory concentration (IC50) of 12.5 µM.
